In US7968602B2, “4-[(E)-2-(5,6,7,8-tetrahydro-5,5,8,8-tetramethyl-2-napthalenyl)-1-propenyl]benzoic acid analogs and method of manufacture and use thereof” (Wisconsin Alumni Research Foundation, priority 2005, dated 2011):
“Also recorded” adds a separate entry of the source.

Columns and labels:
[1] = system: T1, RARalpha, RARbeta and RARgamma; test: Nuclear RAR competition binding assay ([3H]-all-trans-RA, hydroxylapatite); design: species or system human RARalpha and RARgamma, murine RARbeta; details: for competition with [3H]-all-trans-RA for binding to the RARs: RAR types alpha, beta and gamma, stated collectively; for competition binding to RARs: compared with 4-HPTTNPB, studies 'may be performed'
T1 construct: fused on or other part: RARalpha was expressed as a fusion protein in E. coli
Procedure: Nuclear Retinoid Receptor (RAR/RXR) Binding. Competition of retinoids with [^3H]-all-trans-RA for binding to RARalpha, RARbeta and RARgamma and with [^3H]-9-cis-RA for binding to RXRgamma was determined using an in vitro ligand binding assay. (See Clagett-Dame et al., Methods for generating and characterizing retinoid receptors from E. coli and insect cell expression systems, Meth. Enzymol., 282:13-14 (1997)). Recombinant human RARalpha was expressed as a fusion protein in E. coli (see Repa J J et al., All-trans retinol is a ligand for the retinoic acid receptors, Proc Natl Acad Sci USA, 90:7293-7297 (1993)). […] Radiolabeled ligands were added to receptor-containing extracts in the absence and presence of increasing concentrations of competing ligands followed by separating ligand bound to the receptor from that free in solution using a hydroxylapatite (HAP) assay.

MCF-7 cells [2] = test: Cell growth inhibition assay; assay type: cell-based, human; details: for response of MCF-7 cells (live cells / cell death): single treatment, 72 hours; for cell growth inhibition, MCF-7: compared with 4-HPTTNPB, assays 'may be performed'
Procedure: (§1) Cell growth inhibition and TUNEL assays. […] The cells were plated at 50,000 cells/well in 12-well plates. The wells were dosed with varying amounts of retinoid compounds. At cell harvest, propidium iodide was added. Half of the cells were used to determine the number of live and dead cells after adding fluorescein diacetate, which yields a fluorescent product upon cleavage by metabolically active cells. The other half were fixed in 4% paraformaldehyde, dried on aminosilane coated slides and used to determine TUNEL and propidium iodide staining.
Cell culture. The human mammary carcinoma cell line, MCF-7, may be obtained from the American Type Culture Collection (Mannassas, Va.). MCF-7 cells may be maintained in DMEM (Sigma-Aldrich) medium supplemented with 4 g/L glucose, 3.7 g/L sodium bicarbonate and 10% fetal calf serum.
Assay for cell growth inhibition. Cells are plated in flasks/wells of a tissue culture dish. After 24 hours, cells are dosed with a compound of the present invention at varying concentrations, and after 72 hours, the cells are removed from flasks/plates and counted. Fluorescence (due to staining of cells with fluorescein diacetate) was used to count the number of live cells. Phase-contrast microscopy is used to count the total number of cells.

RXRgamma = molecular target: T2, RXRgamma (Mus musculus, UniProt P28705); test: Nuclear RXR competition binding assay ([3H]-9-cis-RA, hydroxylapatite); design: species or system murine; details: for competition binding to RXRs: compared with 4-HPTTNPB, studies 'may be performed'
T2 construct: made in house; host or cells: insect cells infected with baculovirus expression vectors; nuclear extracts
T2 sequence (P28705 1-463): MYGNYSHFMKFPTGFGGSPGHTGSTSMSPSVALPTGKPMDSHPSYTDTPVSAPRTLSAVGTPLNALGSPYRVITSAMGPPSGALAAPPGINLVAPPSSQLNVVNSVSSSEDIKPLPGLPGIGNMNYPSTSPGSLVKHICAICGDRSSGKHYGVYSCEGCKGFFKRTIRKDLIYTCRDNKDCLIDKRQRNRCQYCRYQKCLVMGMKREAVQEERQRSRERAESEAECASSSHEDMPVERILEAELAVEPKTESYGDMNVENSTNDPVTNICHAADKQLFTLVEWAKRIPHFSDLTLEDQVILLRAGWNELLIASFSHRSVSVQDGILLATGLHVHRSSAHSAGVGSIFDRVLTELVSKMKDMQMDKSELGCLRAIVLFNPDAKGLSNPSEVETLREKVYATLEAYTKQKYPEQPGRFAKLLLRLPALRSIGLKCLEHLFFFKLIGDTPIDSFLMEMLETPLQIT
Procedure: Nuclear Retinoid Receptor (RAR/RXR) Binding. Competition of retinoids with [^3H]-all-trans-RA for binding to RARalpha, RARbeta and RARgamma and with [^3H]-9-cis-RA for binding to RXRgamma was determined using an in vitro ligand binding assay. […] Radiolabeled ligands were added to receptor-containing extracts in the absence and presence of increasing concentrations of competing ligands followed by separating ligand bound to the receptor from that free in solution using a hydroxylapatite (HAP) assay.

[3] = system: F9-RARE-lacZ reporter cell line; test: F9 reporter gene assay; assay type: cell-based; details: for potency in activating the reporter system compared with atRA and TTNPB: versus atRA and TTNPB
Text: Reporter gene assay. […] Data were normalized for total protein using the method set forth in Bradford M M, Anal Biochem, 72:248-254 (1976).

MCF-7 cells [4] = test: TUNEL assay (DNA fragmentation); assay type: cell-based, human; details: for induction of apoptosis / DNA fragmentation: MCF-7 cells, 72 hours, 4-HPTTNPB and 4-HBTTNPB at the highest doses; for activity in DNA fragmentation study: compared with 4-HPTTNPB, studies 'may be performed'
Procedure: as §1

[5] = system: DMBA-induced mammary tumors; test: Inhibition of DMBA-induced mammary tumors; assay type: in vivo; details: studies 'may be performed'
pregnant rats = test: Assessment of compound teratogenicity; assay type: in vivo; details: for teratogenic activity / fetal malformations: 0.66 micomoles/kg single oral bolus at E9.25, fetuses at E21.5
Procedure: Assessment of Compound Teratogenicity. Female rats (Harlan Sprague-Dawley, Madison, Wis. approximately 200 to 250 g in weight) were maintained on normal laboratory rat chow and mated with normal rats of the same strain. Pregnant rats were given a single oral bolus dose of compound dissolved in Wesson® corn oil. Each dose was 60-100 μL. The doses were given at day 9.25. Each […] was maintained under standard laboratory conditions until euthanasia at embryonic day 21.5. The fetuses were removed. Fetuses with a heartbeat were determined to be alive. The number of live and dead fetuses were recorded. The number of resorption sites was also recorded. The live fetuses were examined for gross external malformations. All animals were maintained in accordance with protocol approved by the University of Wisconsin-Madison animal care committee.

[6] = TTNPB: at concentrations above 10^-6 M, 4-HPTTNPB and 4-HPR: at the highest concentration

SMILES | competition with [3H]-all-trans-RA for binding to the RARs [1] | response of MCF-7 cells (live cells / cell death) (MCF-7 cells [2]) | competition with [3H]-9-cis-RA for binding to RXRgamma (RXRgamma; [6]) | induction of apoptosis / DNA fragmentation (MCF-7 cells [4]) | competition binding to RARs [1] | cell growth inhibition, MCF-7 (MCF-7 cells [2]) | competition binding to RXRs (RXRgamma) | toxicity in DMBA-induced mammary tumor studies [5] | other results
C/C(=C\c1ccc(C(=O)O)cc1)c1ccc2c(c1)C(C)(C)CCC2(C)C [TTNPB, E-4-[2-methyl-2-(1,1,4,4-tetramethyl-1,2,3,4-tetrahydronapth-7-yl)-vinyl]-benzoic acid, reference compound] | very effective | nearly ineffective | very weak competition | ineffective | – | – | – | – | competition with [3H]-9-cis-RA for binding to RXRgamma (RXRgamma; at 10^-4.5 M): 44%; activity in the F9 reporter assay (beta-galactosidase) [3]: highly active
C/C(=C\c1ccc(C(=O)Cc2ccc(O[C@@H]3O[C@H](CO)[C@@H](O)[C@H](O)[C@H]3O)cc2)cc1)c1ccc2c(c1)C(C)(C)CCC2(C)C [Compound 33, E-4-[2-methyl-2-(1,1,4,4-tetramethyl-1,2,3,4-tetrahydronaphth-7-yl)-vinyl]-phenyl-2′-(4′-beta-D-glucopyranosyloxyphenyl)-1′-ethanone] | – | – | – | – | only slightly better at binding to RARs than 4-HPTTNPB | inhibits growth of MCF-7 cells in a dose-dependent manner | no better at binding to RXRs than 4-HPTTNPB | little, if any, toxicity | teratogenic potential / embryotoxicity (pregnant rats; rat, in vivo): little, if any, observable embrotoxicity
C/C(=C\c1ccc(C(=O)Cc2ccc(OC3OC(C(=O)O)C(O)C(O)C3O)cc2)cc1)c1ccc2c(c1)C(C)(C)CCC2(C)C (stereo not shown) [Compound 25] | – | – | – | – | only slightly better at binding to RARs than 4-HPTTNPB | inhibits growth of MCF-7 cells in a dose-dependent manner; also recorded: less active than 4-HPTTNPB | no better at binding to RXRs than 4-HPTTNPB | little, if any, toxicity | activity in DNA fragmentation study (MCF-7 cells [4]): less active than 4-HPTTNPB; teratogenic potential / embryotoxicity (pregnant rats; 'the data will demonstrate'): little, if any, observable embrotoxicity
C/C(=C\c1ccc(C(=O)Cc2ccc(O)cc2)cc1)c1ccc2c(c1)C(C)(C)CCC2(C)C [4-HBTTNPB, E-4-[2-methyl-2-(1,1,4,4-tetramethyl-1,2,3,4-tetrahydronapth-7-yl)-vinyl]-phenyl-2′-(4′-hydroxyphenyl)-1′-ethanone] | competed poorly | dose-dependent decrease | – | very active | bind only very weakly | – | only slight binding competition | little, if any, toxicity | cell growth inhibition, MCF-7 (MCF-7 cells [2]; listed as 23): inhibits growth of MCF-7 cells in a dose-dependent manner; activity in DNA fragmentation study (MCF-7 cells [4]): activity similar to 4-HPTTNPB; teratogenic activity / fetal malformations (pregnant rats): devoid of any observable teratogenic activity; teratogenic potential / embryotoxicity (pregnant rats; 'the data will demonstrate'): little, if any, observable embrotoxicity; number of dead and resorbed fetuses compared with vehicle group (pregnant rats; rat, in vivo, po): did not differ
C=C(c1ccc(C(=O)O)cc1)c1cc2c(cc1C)C(C)(C)CCC2(C)C [LGD1069, reference compound] | – | – | very effective | – | – | – | – | – | –
CC1=C(/C=C/C(C)=C/C=C/C(C)=C/C(=O)O)C(C)(C)CCC1 [atRA, all-trans retinoic acid, reference compound] | – | – | – | – | – | – | – | – | activity in the F9 reporter assay (beta-galactosidase) [3]: highly active
CCCc1cc2c(cc1/C(C)=C/c1ccc(C(=O)Nc3ccc(O)cc3)cc1)C(C)(C)CCC2(C)C [Compound 12, E-4-[2-methyl-2-(6-propyl-1,1,4,4-tetramethyl-1,2,3,4-tetrahydronapth-7-yl)-vinyl]-benzoic acid 4-hydroxyanilide] | – | – | – | – | bind only very weakly | inhibits growth of MCF-7 cells in a dose-dependent manner | only slight binding competition | – | –
CC1=C(/C=C/C(C)=C/C=C/C(C)=C/C(=O)Nc2ccc(O)cc2)C(C)(C)CCC1 [4-HPR, N-(4-hydroxyphenyl) retinamide, reference compound] | only weak competition | cell death | almost no competition | high degree of apoptosis | – | – | – | – | potency of competition for RAR binding compared with TTNPB ([1]; versus TTNPB): 3-4 orders of magnitude less potent; potency in activating the reporter system compared with atRA and TTNPB [3]: approximately 1000 fold less potent
C/C(=C\c1ccc(C(=O)Nc2ccc(O)cc2)cc1)c1ccc2c(c1)C(C)(C)CCC2(C)C [4-HPTTNPB, E-4-[2-methyl-2-(1,1,4,4-tetramethyl-1,2,3,4-tetrahydronapth-7-yl)-vinyl]-benzoic acid 4-hydroxyanilide] | competed poorly; also recorded: did not show any significant binding | dose-dependent decrease | almost no competition | very active | – | – | – | – | potency in activating the reporter system compared with atRA and TTNPB [3]: around 100 fold less potent; teratogenic activity / fetal malformations (pregnant rats): all profoundly malformed; percentage of the fetuses at embryonic day 21.5 either dead or resorbed (pregnant rats; 0.66 micomoles/kg single oral bolus at E9.25, three pregnant rats): > 80%
